These results are taken from patent US20220153751A1, “BIFUNCTIONAL COMPOUNDS” (BioTheryX, Inc., priority 2018, published 2022).

What all share (type): cell-based
Test [1] has as its system MOLM-13 cells. Nature of the test: MOLM-13 cell viability assay (CellTiter-Glo). To be noted: Homo sapiens, MOLM-13, 72 h, 3 days, read-out: MOLM-13 Cell Viability % DMSO at 1 μM. The protocol: MOLM-13 cells were cultured in RPMI 1640 media supplemented with 10% fetal bovine serum, streptomycin and penicillin, and were plated in walled 96-well plates at 2500 cells/well. Cells were incubated in DMSO (control) or the indicated compound for 3 days at 37° C. and 5% CO2. Following the incubation period, 100 μL of CellTiterGlow (CTG) reagent (CellTiter-Glo® Luminescent Cell Viability Assay, Promega (Madison, Wis.)) was added to each well. Following a 10 minutes incubation with shaking, luminescence was measured using the EnVision Multimode plate reader.
The MOLM-13 cell viability values as % DMSO are reported as “A”, “B”, “C”, or “D”. “A” represents a % viability value of less than 50% (value <50%). “B” represents a % viability value of equal to or more than 50% and less than 70% (50%≤value<70%). “C” represents a % viability value of equal to or more than 70% and less than 90% (70%≤value<90%). “D” represents a % viability value of equal or more than 90% (value ≥90%).
On the technique in general: In ATP-based viability assays light output follows the ATP content of the culture.

Test [2] addresses T1, CDK16 (Homo sapiens, UniProt Q00536).
T1 construct: Whole cell extracts were prepared using RIPA buffer; endogenous in cells; host or cells: MV-4-11
The test can be described thus: CDK16 degradation assay (Western blot, MV-4-11 cells). To be noted: 6-8 h; for Dmax at 0.1 µM: MV4-11, 0.1 μM; for Dmax at 1 µM: MV4-11, 1 μM. The protocol:
(§1) MV-4-11 cells were grown in RPMI 1640 media supplemented with 10% fetal bovine serum, streptomycin and penicillin.
(§2) Cells were cultured at approximately 10^6 cells per mL and incubated in DMSO or the indicated compound for 6-8 h. Whole cell extracts were prepared using RIPA buffer according to manufacturer's protocol (Pierce). Briefly, 3×10^6 cells were washed once in PBS, the cell pellets were resuspended in RIPA buffer and allowed to incubate for 15 minutes on ice. Cells debris was removed by centrifugation and the cleared whole cell lysates were transferred to new tubes for further analysis.
(§3) For Western blot analysis, whole cell protein extracts were separated on 4-12% SDS-polyacrylamide gels, transferred to nitrocellulose and probed with the indicated primary antibodies. Membranes were subsequently washed and probed with the appropriate IRDye secondary antibodies (LI-COR). The signal was detected using the Odyssey Imaging System (LI-COR).
(§4) The following antibodies were used in these studies: Anti-eRF3/GSPT1: Abcam, ab126090 (Cambridge, Mass.); Anti-Ikaros: Abcam, ab191394 (Cambridge, Mass.); Anti-CK1α: Abcam, ab108296 (Cambridge, Mass.); Anti-CDK9: Santa Cruz Biotechnology, sc13130 (Dallas, Tex.); Anti-CDK16: Millipore Sigma, HPA001366 (St. Louis, Mo.); 3-actin (8H10comD10) mouse monoclonal antibody: Cell Signaling Technology, #3700 (Danvers, Mass.); IRDye 680RD Goat anti-rabbit antibody: LI-COR, 926-68071 (Lincoln, Nebr.); IRDye 800CW Goat anti-mouse antibody: LI-COR, 926-32210 (Lincoln, Nebr.).
(§5) CDK9 activities are shown in Table 4 at two different concentrations. CDK16 activities are shown in Table 5 at two different concentrations. In each of Tables 1-5, the % degradation values are reported as “A”, “B”, “C”, or “D”. “A” represents a % degradation value of less than 25% (value <25%). “B” represents a % degradation value of equal to or more than 25% and less than 50% (25%≤value<50%). “C” represents a % degradation value of equal to or more than 50% and less than 75% (50%≤value<75%). “D” represents a % degradation value of equal to or more than 75% (value ≥75%).
On the technique in general: A western blot detects proteins with antibodies after separation by electrophoresis.

For test [3], the target named is T2, CDK9 (Homo sapiens, UniProt P50750).
T2 construct: Whole cell extracts were prepared using RIPA buffer; endogenous in cells; host or cells: MV-4-11
The test can be described thus: CDK9 degradation assay (Western blot, MV-4-11 cells). To be noted: 6-8 h; for Dmax at 0.1 µM: MV4-11, 0.1 μM; for Dmax at 1 µM: MV4-11, 1 μM. How it is done: as §1, §2, §3, §4, §5

T2 sequence (P50750 whole entry): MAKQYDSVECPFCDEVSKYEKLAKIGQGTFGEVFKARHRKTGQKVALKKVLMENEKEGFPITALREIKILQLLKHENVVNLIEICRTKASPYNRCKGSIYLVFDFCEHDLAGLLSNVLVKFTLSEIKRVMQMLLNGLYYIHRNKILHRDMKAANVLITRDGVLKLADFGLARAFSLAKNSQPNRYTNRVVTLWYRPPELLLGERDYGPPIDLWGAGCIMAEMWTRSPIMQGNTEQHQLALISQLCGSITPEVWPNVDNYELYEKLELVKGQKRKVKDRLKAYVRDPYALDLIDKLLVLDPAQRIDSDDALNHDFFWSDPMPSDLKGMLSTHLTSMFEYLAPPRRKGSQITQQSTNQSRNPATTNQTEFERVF
T1 sequence (Q00536 whole entry): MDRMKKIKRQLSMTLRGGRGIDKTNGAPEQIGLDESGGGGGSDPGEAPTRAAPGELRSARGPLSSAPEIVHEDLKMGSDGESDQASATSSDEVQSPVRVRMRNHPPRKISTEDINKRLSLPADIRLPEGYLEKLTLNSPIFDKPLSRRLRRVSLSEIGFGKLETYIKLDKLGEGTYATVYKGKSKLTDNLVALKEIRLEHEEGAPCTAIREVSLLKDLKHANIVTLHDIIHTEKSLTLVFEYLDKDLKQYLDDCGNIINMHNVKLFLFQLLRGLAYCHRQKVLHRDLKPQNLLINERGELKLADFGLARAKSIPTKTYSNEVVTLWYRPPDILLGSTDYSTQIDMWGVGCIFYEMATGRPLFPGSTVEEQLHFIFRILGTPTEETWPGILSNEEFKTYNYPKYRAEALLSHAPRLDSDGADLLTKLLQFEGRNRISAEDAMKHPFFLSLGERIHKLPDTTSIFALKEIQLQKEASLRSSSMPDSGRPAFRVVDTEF

Consider `Cn1ncc(-c2nc(N[C@H]3CC[C@H](NCC(=O)NCCOCCOCCOCCNCc4cc5c(s4)C(=O)N(C4CCC(=O)NC4=O)C5)CC3)ncc2F)c1CC1CC1` (some centres unmarked) [Compound 62, 2-(((1r,4r)-4-((4-(5-(cyclopropylmethyl)-1-methyl-1H-pyrazol-4-yl)-5-fluoropyrimidin-2-yl)amino)cyclohexyl)amino)-N-(1-(5-(2,6-dioxopiperidin-3-yl)-6-oxo-5,6-dihydro-4H-thieno[2,3-c]pyrrol-2-yl)-5,8,11-trioxa-2-azatridecan-13-yl)acetamide], for which the viability at 1 µM in test [1] is more than 90%.

With `Cn1ncc(-c2nc(N[C@H]3CC[C@H](NCCCCCCCNCC(=O)NCc4cc5c(s4)C(=O)N(C4CCC(=O)NC4=O)C5)CC3)ncc2Cl)c1CC1CC1` (some centres unmarked) [Compound 53, 2-((7-(((1r,4r)-4-((5-chloro-4-(5-(cyclopropylmethyl)-1-methyl-1H-pyrazol-4-yl)pyrimidin-2-yl)amino)cyclohexyl)amino)heptyl)amino)-N-((5-(2,6-dioxopiperidin-3-yl)-6-oxo-5,6-dihydro-4H-thieno[2,3-c]pyrrol-2-yl)methyl)acetamide], the viability at 1 µM in test [1] is more than 90%.

Turning to `Cn1ncc(-c2nc(N[C@H]3CC[C@H](NCCCCCCCCNC(=O)NCc4cc5c(s4)C(=O)N(C4CCC(=O)NC4=O)C5)CC3)ncc2F)c1CC1CC1` (some centres unmarked) [Compound 23, 1-(8-(((1r,4r)-4-((4-(5-(cyclopropylmethyl)-1-methyl-1H-pyrazol-4-yl)-5-fluoropyrimidin-2-yl)amino)cyclohexyl)amino)octyl)-3-((5-(2,6-dioxopiperidin-3-yl)-6-oxo-5,6-dihydro-4H-thieno[2,3-c]pyrrol-2-yl)methyl)urea], the viability at 1 µM in test [1] is more than 90%. Moreover, in test [2], the maximal degradation (Dmax) at 0.1 µM fell in the range of 50 to 75% and the Dmax at 1 µM was not below 75%. In test [3], this molecule displayed a Dmax at 0.1 µM not below 75% and a Dmax at 1 µM not below 75%.

As to `Cn1ncc(-c2nc(N[C@H]3CC[C@H](NCC(=O)NCCCCCNC(=O)NCc4cc5c(s4)C(=O)N(C4CCC(=O)NC4=O)C5)CC3)ncc2F)c1CC1CC1` (some centres unmarked) [Compound 17, 2-(((1r,4r)-4-((4-(5-(cyclopropylmethyl)-1-methyl-1H-pyrazol-4-yl)-5-fluoropyrimidin-2-yl)amino)cyclohexyl)amino)-N-(5-(3-((5-(2,6-dioxopiperidin-3-yl)-6-oxo-5,6-dihydro-4H-thieno[2,3-c]pyrrol-2-yl)methyl)ureido)pentyl)acetamide], the Dmax at 0.1 µM in test [2] and in test [3] was 50 to 75% in each case. Further, the figures for the greatest degradation seen (Dmax) at 1 µM in test [2] and in test [3] were 50 to 75% and not below 75%, respectively.

Consider `Cn1ncc(-c2nc(N[C@H]3CC[C@H](NCC(=O)NCCCCCNCC(=O)NCc4scc5c4CN(C4CCC(=O)NC4=O)C5=O)CC3)ncc2Cl)c1CC1CC1` (some centres unmarked) [Compound 31, 2-(((1r,4r)-4-((5-chloro-4-(5-(cyclopropylmethyl)-1-methyl-1H-pyrazol-4-yl)pyrimidin-2-yl)amino)cyclohexyl)amino)-N-(5-((2-(((5-(2,6-dioxopiperidin-3-yl)-4-oxo-5,6-dihydro-4H-thieno[3,4-c]pyrrol-1-yl)methyl)amino)-2-oxoethyl)amino)pentyl)acetamide], for which the viability at 1 µM in test [1] is more than 90%. Besides, in test [2], the Dmax at 0.1 µM lay in the range of 25 to 50% and the Dmax at 1 µM is not below 75%. In test [3], the greatest degradation seen (Dmax) at 0.1 µM lay in the range of 25 to 50% and the Dmax at 1 µM is not below 75%.

On to `Cn1ncc(-c2nc(N[C@H]3CC[C@H](NCC(=O)NCCCCNCC(=O)NCc4scc5c4C(=O)N(C4CCC(=O)NC4=O)C5=O)CC3)ncc2F)c1CC1CC1` (some centres unmarked) [Compound 48, 2-(((1r,4r)-4-((4-(5-(cyclopropylmethyl)-1-methyl-1H-pyrazol-4-yl)-5-fluoropyrimidin-2-yl)amino)cyclohexyl)amino)-N-(4-((2-(((5-(2,6-dioxopiperidin-3-yl)-4,6-dioxo-5,6-dihydro-4H-thieno[3,4-c]pyrrol-1-yl)methyl)amino)-2-oxoethyl)amino)butyl)acetamide], for which the viability at 1 µM in test [1] is more than 90%.

With `Cn1ncc(-c2nc(N[C@H]3CC[C@H](NCC(=O)NCCCCCNC(=O)NCc4cc5c(s4)C(=O)N(C4CCC(=O)NC4=O)C5)CC3)ncc2Cl)c1CC1CC1` (some centres unmarked) [Compound 16, 2-(((1r,4r)-4-((5-chloro-4-(5-(cyclopropylmethyl)-1-methyl-1H-pyrazol-4-yl)pyrimidin-2-yl)amino)cyclohexyl)amino)-N-(5-(3-((5-(2,6-dioxopiperidin-3-yl)-6-oxo-5,6-dihydro-4H-thieno[2,3-c]pyrrol-2-yl)methyl)ureido)pentyl)acetamide], the viability at 1 µM in test [1] is more than 90%. Further, the Dmax at 0.1 µM was not below 75% in test [2] and 50 to 75% in test [3]. The Dmax at 1 µM in test [2] and in test [3] was not below 75% throughout.

For the molecule `CN(CCNC(=O)CN1CCC(C(=O)Nc2ncc(SCc3ncc(C(C)(C)C)o3)s2)CC1)CCNC(=O)NCc1cc2c(s1)C(=O)N(C1CCC(=O)NC1=O)C2` (centres unmarked) [Compound 15, N-(5-(((5-(tert-butyl)oxazol-2-yl)methyl)thio)thiazol-2-yl)-1-(1-(5-(2,6-dioxopiperidin-3-yl)-6-oxo-5,6-dihydro-4H-thieno[2,3-c]pyrrol-2-yl)-7-methyl-3,11-dioxo-2,4,7,10-tetraazadodecan-12-yl)piperidine-4-carboxamide], in test [1], the viability at 1 µM lay within 70 to 90%. Further, in test [2], the Dmax at 0.1 µM is less than 25% and the Dmax at 1 µM was less than 25%. Besides, in test [3], the maximal degradation (Dmax) at 0.1 µM fell in the range of 50 to 75% and the Dmax at 1 µM is not below 75%.

As for `Cn1ncc(-c2nc(N[C@H]3CC[C@H](NCCCCCNCC(=O)NCc4cc5c(s4)C(=O)N(C4CCC(=O)NC4=O)C5)CC3)ncc2Cl)c1CC1CC1` (some centres unmarked) [Compound 60, 2-((5-(((1r,4r)-4-((5-chloro-4-(5-(cyclopropylmethyl)-1-methyl-1H-pyrazol-4-yl)pyrimidin-2-yl)amino)cyclohexyl)amino)pentyl)amino)-N-((5-(2,6-dioxopiperidin-3-yl)-6-oxo-5,6-dihydro-4H-thieno[2,3-c]pyrrol-2-yl)methyl)acetamide], in test [1], the viability at 1 µM was more than 90%.

As to `CN(CCNCC(=O)NCc1cc2c(s1)C(=O)N(C1CCC(=O)NC1=O)C2)CCNC(=O)CN1CCC(C(=O)Nc2ncc(SCc3ncc(C(C)(C)C)o3)s2)CC1` (centres unmarked) [Compound 47, N-(5-(((5-(tert-butyl)oxazol-2-yl)methyl)thio)thiazol-2-yl)-1-(1-(5-(2,6-dioxopiperidin-3-yl)-6-oxo-5,6-dihydro-4H-thieno[2,3-c]pyrrol-2-yl)-8-methyl-3,12-dioxo-2,5,8,11-tetraazatridecan-13-yl)piperidine-4-carboxamide], the viability at 1 µM in test [1] was in the range of 70 to 90%.

On to `CC(C)(C)c1cnc(CSc2cnc(NC(=O)C3CCN(CC(=O)NCCCCCNC(=O)NCc4cc5c(s4)C(=O)N(C4CCC(=O)NC4=O)C5)CC3)s2)o1` (centres unmarked) [Compound 1, 3-[8-Oxo-3-({3-[5-(2-{4-[(5-{[5-(tert-butyl)-1,3-oxazol-2-yl]methylthio}-1,3-thiazol-2-ylamino)carbonyl]-1-piperidyl}acetylamino)pentyl]ureido}methyl)-2-thia-7-azabicyclo[3.3.0]octa-1(5),3-dien-7-yl]-2,6-piperidinedione], for which, in test [1], the viability at 1 µM was more than 90%.

With `CC(C)(C)c1cnc(CSc2cnc(NC(=O)C3CCN(CC(=O)NCCCNC(=O)NCc4cc5c(s4)C(=O)N(C4CCC(=O)NC4=O)C5)CC3)s2)o1` (centres unmarked) [Compound 12, N-(5-(((5-(tert-butyl)oxazol-2-yl)methyl)thio)thiazol-2-yl)-1-(2-((3-(3-((5-(2,6-dioxopiperidin-3-yl)-6-oxo-5,6-dihydro-4H-thieno[2,3-c]pyrrol-2-yl)methyl)ureido)propyl)amino)-2-oxoethyl)piperidine-4-carboxamide], the viability at 1 µM in test [1] was more than 90%. In test [2], the maximal degradation (Dmax) at 0.1 µM fell in the range of 25 to 50% and the greatest degradation seen (Dmax) at 1 µM was 25 to 50%. In test [3], this molecule registered a Dmax at 0.1 µM not below 75% and a Dmax at 1 µM not below 75%.

As a reminder, the viability is a read-out of living cells in per cent, often relative to untreated cells. What is called Dmax is the largest share of the target that was removed. A low value points to shallow degradation.
